Here are results for one compound from ChEMBL document CHEMBL1201862, “PubChem BioAssay data set” (2004).

The structures appear in SMILES notation. The source made the active and inactive calls. Bounds are passed on as bounds.

Assay [1] is described as follows: Trypanosoma cruzi growth suppression in host cells – NIH3T3 host cells, beta-gal luminescence, confirmation (AID 2044).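 Further: intracellular parasites grown in NIH/3T3 mouse fibroblasts as host cells; luminescent beta-galactosidase reporter signal from transgenic T. cruzi replicating inside host cells; inhibitors lower the luminescence signal.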 Type of assay: functional, cell-based.
A short description of assay [2]: NIH3T3 cell viability loss – ATP luminescence, mouse fibroblasts, counter-screen, dose response (AID 2010).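 Further: cells exposed to compound for about 90 hours before reading.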 Type of assay: functional, cell-based. Background: Counterscreens check selectivity or assay interference.
In assay [3] the target is Glucose-6-phosphate 1-dehydrogenase (Homo sapiens, UniProt P11413). The assay is described as follows: inhibition of Homo sapiens G6PD, dose series – biochemical, fluorescence, selectivity assay for P. falciparum G6PD inhibitor project, dose response (AID 504792). Type of assay: functional.
Chain of Glucose-6-phosphate 1-dehydrogenase (P11413 whole entry): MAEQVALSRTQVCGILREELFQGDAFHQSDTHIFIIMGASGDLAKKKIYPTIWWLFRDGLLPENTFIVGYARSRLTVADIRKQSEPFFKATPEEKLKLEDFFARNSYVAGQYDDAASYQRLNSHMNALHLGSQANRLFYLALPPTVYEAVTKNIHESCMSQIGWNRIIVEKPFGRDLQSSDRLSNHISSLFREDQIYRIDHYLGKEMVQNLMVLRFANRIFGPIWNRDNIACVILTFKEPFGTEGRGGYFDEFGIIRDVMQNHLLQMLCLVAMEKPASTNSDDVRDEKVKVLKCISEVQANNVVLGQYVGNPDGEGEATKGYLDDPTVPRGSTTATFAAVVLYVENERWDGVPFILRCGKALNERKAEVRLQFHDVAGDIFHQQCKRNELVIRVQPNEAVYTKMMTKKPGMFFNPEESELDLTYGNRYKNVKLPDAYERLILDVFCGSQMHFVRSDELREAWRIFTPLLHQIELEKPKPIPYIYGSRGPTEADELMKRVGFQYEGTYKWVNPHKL
The nature of assay [4]: THP-1 cell cytotoxicity, dose response, cytotoxicity control for non-replicating M. tuberculosis project (AID 489025). Type of assay: functional.
Another assay deals with T1, Hexokinase HKDC1 (Homo sapiens, UniProt Q2TB90).
T1 sequence (Q2TB90 whole entry): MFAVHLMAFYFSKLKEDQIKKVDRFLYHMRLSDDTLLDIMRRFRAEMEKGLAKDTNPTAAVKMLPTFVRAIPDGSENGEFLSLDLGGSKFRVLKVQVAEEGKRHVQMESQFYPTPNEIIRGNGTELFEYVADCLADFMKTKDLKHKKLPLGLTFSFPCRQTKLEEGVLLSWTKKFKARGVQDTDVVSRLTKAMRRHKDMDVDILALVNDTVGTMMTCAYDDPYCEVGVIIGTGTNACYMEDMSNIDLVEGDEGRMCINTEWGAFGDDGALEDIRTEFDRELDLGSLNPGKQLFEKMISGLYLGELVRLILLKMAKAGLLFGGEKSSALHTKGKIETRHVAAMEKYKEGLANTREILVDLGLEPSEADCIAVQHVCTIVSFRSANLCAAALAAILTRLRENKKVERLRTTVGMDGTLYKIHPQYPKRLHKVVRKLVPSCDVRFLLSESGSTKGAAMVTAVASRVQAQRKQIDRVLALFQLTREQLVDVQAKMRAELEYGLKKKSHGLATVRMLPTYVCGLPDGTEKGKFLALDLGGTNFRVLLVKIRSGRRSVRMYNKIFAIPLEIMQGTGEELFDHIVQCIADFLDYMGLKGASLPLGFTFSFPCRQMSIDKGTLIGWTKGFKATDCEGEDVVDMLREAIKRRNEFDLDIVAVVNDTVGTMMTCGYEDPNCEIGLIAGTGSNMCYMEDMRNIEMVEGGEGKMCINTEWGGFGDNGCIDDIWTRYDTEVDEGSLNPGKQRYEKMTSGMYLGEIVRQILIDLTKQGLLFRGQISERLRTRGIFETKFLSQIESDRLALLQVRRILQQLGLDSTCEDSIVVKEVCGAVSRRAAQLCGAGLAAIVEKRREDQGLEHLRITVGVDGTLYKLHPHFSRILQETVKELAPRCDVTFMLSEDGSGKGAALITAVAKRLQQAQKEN
The assay is described as follows: activation of HKDC1 glucose phosphorylation – biochemical, W721R variant, dose response (AID 504730). It is filed as functional.

The target of assay [5] is T2, Heat shock factor protein 1 (Mus musculus, UniProt P38532).
T2 sequence (P38532 whole entry): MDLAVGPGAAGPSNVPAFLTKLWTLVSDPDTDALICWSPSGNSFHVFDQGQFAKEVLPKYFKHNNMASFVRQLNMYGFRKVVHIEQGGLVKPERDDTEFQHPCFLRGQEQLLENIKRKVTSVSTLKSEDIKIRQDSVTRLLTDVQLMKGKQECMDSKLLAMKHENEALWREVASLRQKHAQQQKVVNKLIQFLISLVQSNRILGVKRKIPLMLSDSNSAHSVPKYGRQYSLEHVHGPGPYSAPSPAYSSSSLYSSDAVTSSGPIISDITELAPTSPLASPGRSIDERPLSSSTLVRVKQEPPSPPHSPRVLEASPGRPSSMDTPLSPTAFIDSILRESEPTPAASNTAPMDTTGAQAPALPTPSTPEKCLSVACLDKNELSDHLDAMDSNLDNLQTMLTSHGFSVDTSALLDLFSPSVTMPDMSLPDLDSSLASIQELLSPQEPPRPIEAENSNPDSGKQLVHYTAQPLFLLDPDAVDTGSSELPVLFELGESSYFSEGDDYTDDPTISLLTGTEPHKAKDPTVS
The assay is described as follows: enhancement of HSF1-driven luciferase signal – cell-based, NIH3T3, luminescence, dose retest, confirmation (AID 435004).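 Further: stress induced by proteasome inhibitor MG132 added 30 min after compound; luciferase reporter driven by HSF1 response element in NIH3T3 cells; actives raise luminescence as potentiators of the MG132 stress response.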 It is filed as functional.

For assay [6], the target named is Lysine-specific demethylase 4C (Homo sapiens, UniProt Q9H3R0). The assay is described as follows: inhibition of JMJD2C H3K9me3 demethylation – biochemical, DELFIA europium, cherry-picked samples, dose response (AID 488835). It is filed as functional.
Chain of Lysine-specific demethylase 4C (Q9H3R0 whole entry): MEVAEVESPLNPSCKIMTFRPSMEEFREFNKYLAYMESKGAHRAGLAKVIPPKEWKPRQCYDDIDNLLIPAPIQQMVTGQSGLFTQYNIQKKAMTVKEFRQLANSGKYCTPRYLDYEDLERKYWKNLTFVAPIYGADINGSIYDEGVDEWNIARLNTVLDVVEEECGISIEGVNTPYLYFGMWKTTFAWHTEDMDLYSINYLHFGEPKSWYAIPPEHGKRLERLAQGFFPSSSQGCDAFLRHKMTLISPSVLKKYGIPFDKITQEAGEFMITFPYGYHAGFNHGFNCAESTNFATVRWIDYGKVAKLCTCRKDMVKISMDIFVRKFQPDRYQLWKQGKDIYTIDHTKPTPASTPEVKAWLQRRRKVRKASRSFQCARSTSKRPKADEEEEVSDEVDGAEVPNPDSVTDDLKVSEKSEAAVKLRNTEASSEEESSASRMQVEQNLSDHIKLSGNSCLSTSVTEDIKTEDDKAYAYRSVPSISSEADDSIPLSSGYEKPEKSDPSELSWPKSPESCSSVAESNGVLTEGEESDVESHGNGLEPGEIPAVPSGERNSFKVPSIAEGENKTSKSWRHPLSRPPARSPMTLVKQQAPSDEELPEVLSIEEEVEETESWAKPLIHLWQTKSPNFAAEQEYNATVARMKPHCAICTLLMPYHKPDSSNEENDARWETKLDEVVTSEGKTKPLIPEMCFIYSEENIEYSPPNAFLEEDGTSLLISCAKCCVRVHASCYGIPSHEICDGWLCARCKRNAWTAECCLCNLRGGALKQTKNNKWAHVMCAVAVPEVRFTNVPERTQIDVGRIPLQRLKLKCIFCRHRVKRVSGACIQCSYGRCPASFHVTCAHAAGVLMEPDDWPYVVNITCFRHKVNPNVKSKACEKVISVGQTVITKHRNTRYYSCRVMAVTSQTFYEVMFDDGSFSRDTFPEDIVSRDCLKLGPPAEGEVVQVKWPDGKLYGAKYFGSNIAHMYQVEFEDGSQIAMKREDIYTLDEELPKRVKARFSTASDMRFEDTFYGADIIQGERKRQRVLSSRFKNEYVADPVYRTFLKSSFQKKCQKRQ
A further assay in a line: cells. Type of assay: functional.
The target of assay [7] is Heat shock protein HSP 90-alpha (Homo sapiens, UniProt P07900). It is filed as functional, organism-based.

What is called EC50 is the concentration at which the effect is half-maximal. Usually IC50 stands for the concentration at which inhibition is half-maximal. Broadly, the CC50 is the concentration that lowers cell viability or growth by half. The AC50 is the concentration giving half of the maximal activity seen. As to `Clc1ccc(/N=c2\ssnc2Cl)nc1`, the EC50 is 1.45 µM (active) in assay [1], > 60 µM (not active) in assay [2], 50.3 µM (inactive) at Hexokinase HKDC1 and 16 µM (active) in assay [5]. Besides, the IC50 was > 80 µM (inactive) in [3] and 32.9 µM (active) in the assay “cells”. The CC50 in [4] was 17.5 µM (active). Moreover, the AC50 is 0.669 µM (active) in assay [6] and 1.73 µM (active) in assay [7].
